Among the data in ChEMBL document CHEMBL3596141, “Isolation and Structure Elucidation of Fujikurins A-D: Products of the PKS19 Gene Cluster in Fusarium fujikuroi” (J Nat Prod, 2015) are Activity values, retold here.

The structures appear in SMILES notation. The source made the active and inactive calls. The rule behind the calls is not given here.

This experiment concerns HepG2. As to the kind of experiment: Cytotoxicity against human HepG2 cells assessed as cell viability up to 100 uM after 48 hrs by CCK-8 assay. The format is functional, cell-based.

With `CCC(C)C(=O)C1=C(O)C(C)C(C)OC1=O` (stereo unspecified), the result was inactive.
